Laboratory results: the NIST ThermoML archive (doi:10.1016/j.fluid.2009.11.007)

Experiment: xn = mol fraction of the nth substance listed
Settings: Gas, Vibrating tube method

CCCCCCCCCCCCCCCC(=O)O [hexadecanoic acid] + O=C=O
Settings	mass density [kg/m3]
313 K, 22020 kPa, x1 = 0.0004968	857.5
313 K, 22020 kPa, x1 = 0.0006348	858.2
313 K, 22020 kPa, x1 = 0.0008682	857.3
313 K, 22030 kPa, x1 = 0.0005357	857.3
313 K, 22050 kPa, x1 = 0.0006302	857.5
313 K, 22230 kPa, x1 = 0.0007923	860.8
313 K, 22470 kPa, x1 = 0.0008682	861
313 K, 22650 kPa, x1 = 0.0007923	864
313 K, 22790 kPa, x1 = 0.0004968	863.5
313 K, 22910 kPa, x1 = 0.0007923	865.9
313 K, 22930 kPa, x1 = 0.0008981	864.8
313 K, 22990 kPa, x1 = 0.0003534	866
313 K, 23000 kPa, x1 = 0.0006302	864.9
313 K, 23030 kPa, x1 = 0.0005357	865.1
313 K, 23050 kPa, x1 = 0.0006348	866
313 K, 23070 kPa, x1 = 0.0008682	865.7
313 K, 23280 kPa, x1 = 0.0008981	867.3
313 K, 23520 kPa, x1 = 0.0007923	868.9
313 K, 23550 kPa, x1 = 0.0008682	869.1
313 K, 23570 kPa, x1 = 0.0008981	869.5
313 K, 23790 kPa, x1 = 0.0006348	871.5
313 K, 23810 kPa, x1 = 0.0008981	871.1
313 K, 23990 kPa, x1 = 0.0005357	872.2
313 K, 24000 kPa, x1 = 0.0006302	872.3
313 K, 24010 kPa, x1 = 0.0004968	872.7
313 K, 24010 kPa, x1 = 0.0008981	872.6
313 K, 24020 kPa, x1 = 0.0007923	871.6
313 K, 24040 kPa, x1 = 0.0008682	872.7
313 K, 24050 kPa, x1 = 0.0003534	873.7
313 K, 24460 kPa, x1 = 0.0008682	875.8
313 K, 24640 kPa, x1 = 0.0005357	876.7
313 K, 24740 kPa, x1 = 0.0006302	877.4
313 K, 24780 kPa, x1 = 0.0008981	877.9
313 K, 25030 kPa, x1 = 0.0004968	879.6
318 K, 10140 kPa, x1 = 0.0001436	535.9
318 K, 10290 kPa, x1 = 0.0001436	551.9
318 K, 10550 kPa, x1 = 0.0001436	577.8
318 K, 10890 kPa, x1 = 0.0001436	604.2
318 K, 11230 kPa, x1 = 0.0001436	626.2
318 K, 11520 kPa, x1 = 0.0001436	641.2
318 K, 11870 kPa, x1 = 0.0001436	657.3
318 K, 12190 kPa, x1 = 0.0001436	670.6
318 K, 12480 kPa, x1 = 0.0001436	680.9
318 K, 12820 kPa, x1 = 0.0001436	692
318 K, 13110 kPa, x1 = 0.0001436	700.3
318 K, 13390 kPa, x1 = 0.0001436	708.3
318 K, 13730 kPa, x1 = 0.0001436	716.8
318 K, 14030 kPa, x1 = 0.0001436	723.9
318 K, 14520 kPa, x1 = 0.0001436	734.8
318 K, 14990 kPa, x1 = 0.0001436	744
318 K, 16050 kPa, x1 = 0.0001436	762.8
318 K, 17010 kPa, x1 = 0.0001436	777.4
318 K, 17690 kPa, x1 = 0.0001436	786.8
318 K, 18080 kPa, x1 = 0.0001436	791.8
318 K, 18990 kPa, x1 = 0.0001436	802.8
318 K, 19750 kPa, x1 = 0.0001436	811.4
318 K, 21720 kPa, x1 = 0.001828	831.3
318 K, 21990 kPa, x1 = 0.001828	833.9
318 K, 22510 kPa, x1 = 0.001828	838.4
318 K, 23010 kPa, x1 = 0.001828	842.7
318 K, 23350 kPa, x1 = 0.001112	845.5
318 K, 23520 kPa, x1 = 0.001828	846.9
318 K, 23920 kPa, x1 = 0.001112	849.8
318 K, 24050 kPa, x1 = 0.001112	850.8
318 K, 24050 kPa, x1 = 0.001828	850.9
318 K, 24090 kPa, x1 = 0.001112	851.1
318 K, 24270 kPa, x1 = 0.001112	852.5
318 K, 24430 kPa, x1 = 0.001112	853.7
318 K, 24510 kPa, x1 = 0.001112	854.2
318 K, 24560 kPa, x1 = 0.001828	854.7
318 K, 24610 kPa, x1 = 0.001112	855
318 K, 24770 kPa, x1 = 0.001112	856.3
318 K, 24930 kPa, x1 = 0.001112	857.5
318 K, 25040 kPa, x1 = 0.001112	858.3
